Experiments:
Poly(GP) = assay: poly(GP) in c9ALS iPSC-derived spinal neurons; type: cell-based, human
Experimental: iPSCs were differentiated into spinal neuron cells using a previously the previously described direct induced motor neuron (diMNs) differentiation protocol (58) with modifications. Briefly, iPSCs were plated into Matrigel-coated 100 mm dishes (30-40% confluence). Neuroepithelial induction was performed by replacing the iPSC maintenance medium with Stage 1 medium [47.5% IMDM (Iscove's Modified Dulbecco's Medium) medium, 47.5% F12 medium, 1% NEAA (Non-Essential Amino Acid) (Life Technologies), 2% B27 (Invitrogen), 1% N2, 1% PSA (Penicillin-Streptomycin-Amphotericin), 0.2 μM LDN193189 (Stemgent), 10 μM SB431542 ([…] Technologies) and 3 μM CHIR99021 (Sigma-Aldrich)]. After daily medium changes for 6 days, cells were detached with Accutase and seeded into 6-well plates (1.5×10^6 cells/well) in 3 mL Stage 2 medium. […]
Measuring Poly(GP) Levels by Electrochemiluminescence. […] Protein concentration was measured by Pierce™ BCA Protein Assay Kit.
Levels of poly(GP) were measured using Meso Scale Discovery MSD Gold 96-well Streptavidin SECTOR plates. […] The conjugated antibodies were desalted with 40K Zeba™ Spin Desalting Columns (Thermo Fisher Scientific), and their concentrations were determined by Pierce™ BCA Protein Assay Kit. […]

C9orf72 transcripts = assay: C9orf72 variants by RT-qPCR in brain of +/+PWR500 C9orf72 BAC mice; type: in vivo, mouse; conditions: three weeks
Experimental: (§1) Therapeutic Efficacy in a c9ALS/FD mouse model. All animal studies were completed as approved by the Scripps Florida Institutional Animal Care and Use Committee. A total of 24 mice (12+/+PWR500 [7 Male and 5 Female] and 12 WT [6 Male and 6 Female]) mice, age- and gender-matched and ranging in age from 18-22 weeks old were used in therapeutic efficacy studies (Table 6). Mice were anesthetized by intraperitoneal (i.p.) injection of 10 mg/mL Ketamine:1 mg/mL Xylazine solution. Intracerebroventricular (ICV) stereotactic injections of 10 μL of 7 (33 nmol) were administered into the right ventricle using the following coordinates: 0.2 mm posterior and 1.0 mm lateral to the right from the bregma and 3 mm deep. Mice were treated with 7 or vehicle consisting of 1% DMSO in Saline. Three weeks post-treatment, mice were euthanized, and tissue was harvested for study.
Measuring C9orf72 Variants by RT-qPCR. Postmortem brain tissue was harvested and sliced along the midline. The left hemisphere was frozen for RNA and protein analysis. The left hemisphere of each brain was homogenized in 300 μL ice cold Tris-EDTA buffer with 2× protease inhibitors. 150 μL of homogenized tissue was used for RNA extraction. 450 μL of triazol LS was added to the homogenized tissue and centrifuged for 15 min at 16,000 rpm. Following centrifugation, supernatant was collected and an equal volume (600 μL) of 100% ethanol was added and mixed thoroughly. RNA was purified using a Direct-zol RNA Kit (Zymo Research) per the manufacturer's protocol. RT-qPCR was performed as described above. Expression levels of mRNAs were normalized to mouse (3-actin. See Table 2 for a list of primers. Statistical analysis was measured using an unpaired t-test with Welch's correction.

[1] = tested on: Poly(GP), Poly(GA), TDP-43 inclusions; assay: Immunohistochemistry of sagittal brain sections of +/+PWR500 mice; type: in vivo, mouse; conditions: cortex
Experimental: as §1
Immunohistochemistry. Tissue was excised postmortem, and brain tissue was sliced at the midline. The right hemisphere was stored in 10% neutral buffered formalin for 48 h. Tissue processing, embedding and sectioning were carried out by the Scripps Florida's Histology Core. Formalin-fixed tissue was placed on a paraffin processor (Sakura Tissue-Tek VIPS), embedded in paraffin, sectioned a 4 μm, and mounted on plus slides. The slides were optimized with the appropriate primary antibody dilutions (see below) on the Leica BOND-MAX platform followed by the Leica Refine Detection Kit containing the secondary polymer, DAB chromagen and counterstain. After dehydration in graded alcohols and cleared in xylene, the slides were cover slipped with a permanent mounting medium, Cytoseal 60 (Thermo Scientific). Images were taken in the right hemisphere of the cortex due north of the hippocampus with 5 images were taken per slice. Average number of aggregates or inclusions per cell was assessed for each sample and reported. Statistical analysis was measured using an unpaired t-test with Welch's correction. Immunohistochemical staining and analyses were completed blinded.

In the case of CCOC(=O)C1=C(Nc2ccccc2)S/C(=C\c2ccc(OCCOCCOCCOCCNC(=O)CCC(=O)N(CCOCCOCCOc3ccc4[nH]c5c(C)c6ccncc6c(C)c5c4c3)CCOCCOCCOc3ccc4[nH]c5c(C)c6ccncc6c(C)c5c4c3)c(O)c2)C1=O [Compound 7], the “abundance of poly(GP)” value (Poly(GP)) was “significant (P<0.05) reduction”, the “C9orf72 exon 1b RNA levels” value (C9orf72 transcripts; 33 nmol ICV) was “not altered” and the “all C9orf72 transcripts (exon 2-exon 3 junction)” value (C9orf72 transcripts; 33 nmol ICV) was “reduced”. For the same molecule, the “reduction of r(G4C2)exp-containing intron 1 mRNA” value (C9orf72 transcripts; 33 nmol single ICV injection, compared to vehicle) was 44±22%, the “Poly(GA) aggregates” value ([1]; compared to vehicle) was “significant decrease” and the “Poly(GP) aggregates” value ([1]; compared to vehicle) was “significant decrease”. For the same molecule, the TDP-43 inclusions ([1]; relative to vehicle) was “decreased”.

From US20230381170A1, “METHOD FOR TREATING ALS/FTD THROUGH DEGRADATION OF RNA REPEAT EXPANSION” (University of Florida Research Foundation, Incorporated, priority 2020, published 2023)
